Data: patent US9242937B2, “Pharmaceutically active disubstituted pyridine derivatives” (Bayer Intellectual Property GmbH, priority 2011, dated 2016)

Assays:
Format in all cases: biochemical
CDK1/CyclinB1 = target: T1, CDK1/CyclinB1 (Homo sapiens, UniProt P06493); assay: Lance Ultra KinaSelect Assay, CDK1; details: ULight MBP substrate, ATP 20 μM; read-out: CDK1 LANCE assay (activity range), IC50
T1 construct: purchased Carna
Protocol: (§1) This protocol describes how the Lance Ultra KinaSelect Assay was performed to determine half maximal inhibitory concentration (IC50) of compounds of general formula (I) and CDK/Cyclin complexes. The principle behind this enzymatic assay is based upon the phosphorylation of the ULight-Peptide Substrat. It is detected by using a specific EU-labeled anti-phospho peptide antibody. The binding of the Eu-labeled anti-phospho peptide antibody to the phosphorylated ULight labeled peptide gives rise to a FRET-signal. Binding of an inhibitor to the kinase prevents phosphorylation of the ULight-MBP Substrat, resulting in a loss of FRET.
(§2) The compounds of general formula (I) summarized in Table 5 were diluted from a 10 mM DMSO stock solution 1:10 in a total volume of 15 μL DMSO. […] Positive and negative controls were calculated from at least 8 different sample wells. […] Before reading, 10 μL the detection buffer (Lance Detection Buffer 1×; EDTA: […]; Eu-Anti-P-MBP: see Table 3) was added. The FRET signal was measured at 340 nm excitation, 665 nm and 615 nm emission (for the kinase tracer and LanthaScreen Eu-AB, respectively) with an Envision spectrophotometer (Perkin Elmer, Waltham, Mass., USA) with 50 μs delay and 300 μs integration time. IC50 values were determined from the sigmoidal dose response curves with the software Quattro Workflow (Quattro GmbH, Munich, Germany).

CDK4/CyclinD1 = target: T2, CDK4/CyclinD1 (Homo sapiens, UniProt P11802); assay: Lance Ultra KinaSelect Assay, CDK4; details: ULight MBP substrate, ATP 90 μM; read-out: CDK4 LANCE assay (activity range), IC50
T2 construct: purchased Invitrogen
T2 sequence (P11802 whole entry): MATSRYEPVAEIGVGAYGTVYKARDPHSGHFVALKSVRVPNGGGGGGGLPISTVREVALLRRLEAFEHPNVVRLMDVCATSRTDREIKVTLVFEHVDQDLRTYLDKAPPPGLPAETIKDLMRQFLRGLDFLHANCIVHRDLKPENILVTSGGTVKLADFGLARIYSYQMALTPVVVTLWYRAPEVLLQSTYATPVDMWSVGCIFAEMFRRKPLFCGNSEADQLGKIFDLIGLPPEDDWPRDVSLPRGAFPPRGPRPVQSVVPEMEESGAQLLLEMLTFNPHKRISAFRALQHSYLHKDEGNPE
T2 sequence (P24385 whole entry partner): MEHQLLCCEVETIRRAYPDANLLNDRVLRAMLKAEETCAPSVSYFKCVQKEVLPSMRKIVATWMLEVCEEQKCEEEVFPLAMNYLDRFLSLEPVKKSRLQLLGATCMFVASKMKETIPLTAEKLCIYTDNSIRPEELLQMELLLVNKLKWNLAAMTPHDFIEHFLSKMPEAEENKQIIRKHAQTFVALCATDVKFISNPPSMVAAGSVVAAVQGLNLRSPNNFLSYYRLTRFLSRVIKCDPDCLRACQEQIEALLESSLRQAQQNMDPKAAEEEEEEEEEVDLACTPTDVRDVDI
Protocol: as §1, §2

CDK6/CyclinD3 = target: T3, CDK6/CyclinD3 (Homo sapiens, UniProt Q00534); assay: Lance Ultra KinaSelect Assay, CDK6; details: ULight MBP substrate, ATP 55 μM; read-out: CDK6 LANCE assay (activity range), IC50
T3 construct: purchased Carna
T3 sequence (Q00534 whole entry): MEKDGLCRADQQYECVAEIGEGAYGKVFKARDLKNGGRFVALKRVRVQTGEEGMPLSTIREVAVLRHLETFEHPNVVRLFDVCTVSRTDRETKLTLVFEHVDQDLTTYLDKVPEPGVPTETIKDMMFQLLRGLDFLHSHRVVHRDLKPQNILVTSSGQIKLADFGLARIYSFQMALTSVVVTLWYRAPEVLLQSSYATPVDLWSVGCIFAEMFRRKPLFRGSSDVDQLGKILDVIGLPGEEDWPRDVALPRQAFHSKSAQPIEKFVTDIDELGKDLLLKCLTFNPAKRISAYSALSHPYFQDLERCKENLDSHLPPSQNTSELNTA
T3 sequence (P30281 whole entry partner): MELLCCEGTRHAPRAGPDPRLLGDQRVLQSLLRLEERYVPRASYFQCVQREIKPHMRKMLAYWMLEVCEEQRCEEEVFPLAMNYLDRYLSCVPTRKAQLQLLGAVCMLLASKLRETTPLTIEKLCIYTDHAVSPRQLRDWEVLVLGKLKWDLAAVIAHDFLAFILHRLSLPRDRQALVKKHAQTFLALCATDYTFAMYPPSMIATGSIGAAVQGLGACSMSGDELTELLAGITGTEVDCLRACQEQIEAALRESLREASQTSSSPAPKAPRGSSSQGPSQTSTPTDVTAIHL
Protocol: as §1, §2

T1 sequence (P06493 whole entry): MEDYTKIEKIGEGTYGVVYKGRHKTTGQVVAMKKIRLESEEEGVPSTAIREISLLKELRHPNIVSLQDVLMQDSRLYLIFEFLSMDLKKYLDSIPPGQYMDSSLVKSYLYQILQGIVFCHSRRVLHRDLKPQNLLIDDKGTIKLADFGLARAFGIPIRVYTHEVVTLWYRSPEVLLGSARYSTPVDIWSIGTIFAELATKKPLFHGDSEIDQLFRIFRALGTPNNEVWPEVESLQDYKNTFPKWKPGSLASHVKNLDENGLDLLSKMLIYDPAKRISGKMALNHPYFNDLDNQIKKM
T1 sequence (P14635 whole entry partner): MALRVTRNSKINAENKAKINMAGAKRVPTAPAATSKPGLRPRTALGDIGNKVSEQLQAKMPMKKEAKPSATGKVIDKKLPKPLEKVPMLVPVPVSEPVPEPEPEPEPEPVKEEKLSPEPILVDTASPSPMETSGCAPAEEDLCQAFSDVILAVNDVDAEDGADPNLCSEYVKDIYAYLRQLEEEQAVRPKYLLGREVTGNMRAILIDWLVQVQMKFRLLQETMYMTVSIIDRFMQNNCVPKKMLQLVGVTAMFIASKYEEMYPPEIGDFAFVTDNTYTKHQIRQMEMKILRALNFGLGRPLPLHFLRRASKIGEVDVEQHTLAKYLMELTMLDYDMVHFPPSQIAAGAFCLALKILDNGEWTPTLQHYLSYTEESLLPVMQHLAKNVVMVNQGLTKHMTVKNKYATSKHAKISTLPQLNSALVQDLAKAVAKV

IC50 (CDK1/CyclinB1) [µM]	IC50 (CDK4/CyclinD1) [µM]	IC50 (CDK6/CyclinD3) [µM]	Structure (SMILES)
1 to 10	1 to 10	> 10	COc1cc(F)ccc1-c1ccnc(Nc2cccc(CS(N)(=O)=O)c2)c1 [Compound G1, [3-((4-(4-Fluoro-2-methoxyphenyl)pyridin-2-yl)amino)phenyl]-methanesulfonamide]
1 to 10	> 10	> 10	COc1ccccc1-c1ccnc(Nc2cccc(S(N)(=O)=O)c2)c1 [Compound D1, 3-[(4-(2-Methoxyphenyl)pyridin-2-yl)amino]benzenesulfonamide]
